The NIST ThermoML archive (doi:10.1021/je5005752)

Test: xn = mol fraction of the nth substance listed
Details: 101 kPa, Liquid; for viscosity: Falling or rolling sphere viscometry; for mass density: Vibrating tube method

CCCC(=O)OCC [ethyl butanoate] + CC(C)CCO
Details | mass density [kg/m3] | viscosity [mPa·s]
288.15 K, x1 = 0.1001 | 820.68 | 3.238
288.15 K, x1 = 0.2 | 828.59 | 2.255
288.15 K, x1 = 0.3 | 836.24 | 1.754
288.15 K, x1 = 0.4 | 843.64 | 1.414
288.15 K, x1 = 0.5 | 850.77 | 1.184
288.15 K, x1 = 0.6 | 857.71 | 1.031
288.15 K, x1 = 0.7 | 864.47 | 0.9059
288.15 K, x1 = 0.7999 | 871.18 | 0.8213
288.15 K, x1 = 0.8995 | 877.79 | 0.7679
288.15 K, x1 = 1 | 884.16 | 0.7224
293.15 K, x1 = 0.1001 | 816.74 | 2.813
293.15 K, x1 = 0.2 | 824.48 | 2
293.15 K, x1 = 0.3 | 831.95 | 1.575
293.15 K, x1 = 0.4 | 839.17 | 1.285
293.15 K, x1 = 0.5 | 846.15 | 1.086
293.15 K, x1 = 0.6 | 852.95 | 0.953
293.15 K, x1 = 0.7 | 859.56 | 0.8432
293.15 K, x1 = 0.7999 | 866.14 | 0.7689
293.15 K, x1 = 0.8995 | 872.63 | 0.7214
293.15 K, x1 = 1 | 878.9 | 0.6808
298.15 K, x1 = 0.1001 | 812.8 | 2.462
298.15 K, x1 = 0.2 | 820.34 | 1.785
298.15 K, x1 = 0.3 | 827.63 | 1.422
298.15 K, x1 = 0.4 | 834.7 | 1.172
298.15 K, x1 = 0.5 | 841.51 | 0.9993
298.15 K, x1 = 0.6 | 848.16 | 0.8831
298.15 K, x1 = 0.7 | 854.64 | 0.7864
298.15 K, x1 = 0.7999 | 861.09 | 0.7207
298.15 K, x1 = 0.8995 | 867.46 | 0.6784
298.15 K, x1 = 1 | 873.62 | 0.643
303.15 K, x1 = 0.1001 | 808.84 | 2.164
303.15 K, x1 = 0.2 | 816.19 | 1.598
303.15 K, x1 = 0.3 | 823.31 | 1.288
303.15 K, x1 = 0.4 | 830.2 | 1.073
303.15 K, x1 = 0.5 | 836.86 | 0.9221
303.15 K, x1 = 0.6 | 843.37 | 0.8204
303.15 K, x1 = 0.7 | 849.71 | 0.7345
303.15 K, x1 = 0.7999 | 856.02 | 0.6764
303.15 K, x1 = 0.8995 | 862.27 | 0.6389
303.15 K, x1 = 1 | 868.33 | 0.6072
308.15 K, x1 = 0.1001 | 804.86 | 1.914
308.15 K, x1 = 0.2 | 812.02 | 1.439
308.15 K, x1 = 0.3 | 818.96 | 1.172
308.15 K, x1 = 0.4 | 825.69 | 0.9851
308.15 K, x1 = 0.5 | 832.19 | 0.853
308.15 K, x1 = 0.6 | 838.55 | 0.7639
308.15 K, x1 = 0.7 | 844.75 | 0.6872
308.15 K, x1 = 0.7999 | 850.94 | 0.6355
308.15 K, x1 = 0.8995 | 857.07 | 0.6026
308.15 K, x1 = 1 | 863.02 | 0.5736
313.15 K, x1 = 0.1001 | 800.85 | 1.7
313.15 K, x1 = 0.2 | 807.82 | 1.302
313.15 K, x1 = 0.3 | 814.58 | 1.069
313.15 K, x1 = 0.4 | 821.15 | 0.9071
313.15 K, x1 = 0.5 | 827.5 | 0.7907
313.15 K, x1 = 0.6 | 833.71 | 0.7128
313.15 K, x1 = 0.7 | 839.78 | 0.6437
313.15 K, x1 = 0.7999 | 845.83 | 0.5975
313.15 K, x1 = 0.8995 | 851.85 | 0.569
313.15 K, x1 = 1 | 857.7 | 0.5425
318.15 K, x1 = 0.1001 | 796.81 | 1.516
318.15 K, x1 = 0.2 | 803.6 | 1.181
318.15 K, x1 = 0.3 | 810.18 | 0.9787
318.15 K, x1 = 0.4 | 816.58 | 0.8373
318.15 K, x1 = 0.5 | 822.78 | 0.7346
318.15 K, x1 = 0.6 | 828.85 | 0.6658
318.15 K, x1 = 0.7 | 834.78 | 0.6038
318.15 K, x1 = 0.7999 | 840.71 | 0.5626
318.15 K, x1 = 0.8995 | 846.61 | 0.538
318.15 K, x1 = 1 | 852.36 | 0.5132
323.15 K, x1 = 0.1001 | 792.73 | 1.371
323.15 K, x1 = 0.2 | 799.34 | 1.08
323.15 K, x1 = 0.3 | 805.76 | 0.8983
323.15 K, x1 = 0.4 | 811.99 | 0.7743
323.15 K, x1 = 0.5 | 818.03 | 0.6838
323.15 K, x1 = 0.6 | 823.96 | 0.6195
323.15 K, x1 = 0.7 | 829.75 | 0.5672
323.15 K, x1 = 0.7999 | 835.56 | 0.5303
323.15 K, x1 = 0.8995 | 841.34 | 0.5071
323.15 K, x1 = 1 | 847 | 0.487
